According to ChEMBL document CHEMBL4699480 (J Med Chem, 2020):
Calls of active or inactive are those of the source. The rule behind the calls is not given here.

Tests used:
[1] = Inhibition of N-terminal His9-tagged Methanocaldococcus jannaschii DSM 2661 AglH incubated for 2 hrs using UDP-GlcN-Cg-FITC and alpha-dihydroundecap-renyl phosphate by reversed-phase HPLC analysis
[2] = Inhibition of Escherichia coli WecA incubated for 2 hrs using UDP-Glucosamine-C6-FITC substrate by reversed-phase HPLC analysis; set-up: species or system Escherichia coli BL21
[3] = biological target: T1, UDP-N-acetylglucosamine--dolichyl-phosphate N-acetylglucosaminephosphotransferase (Homo sapiens, UniProt Q9H3H5); test: Inhibition of human DPAGT1 expressed in HEK293 (Expi293) cells incubated for 2 hrs using UDP-GlcN-Cg-FITC and alpha-dihydroundecap-renyl phosphate by reversed-phase HPLC analysis; assay type: cell-based
T1 sequence (Q9H3H5 whole entry): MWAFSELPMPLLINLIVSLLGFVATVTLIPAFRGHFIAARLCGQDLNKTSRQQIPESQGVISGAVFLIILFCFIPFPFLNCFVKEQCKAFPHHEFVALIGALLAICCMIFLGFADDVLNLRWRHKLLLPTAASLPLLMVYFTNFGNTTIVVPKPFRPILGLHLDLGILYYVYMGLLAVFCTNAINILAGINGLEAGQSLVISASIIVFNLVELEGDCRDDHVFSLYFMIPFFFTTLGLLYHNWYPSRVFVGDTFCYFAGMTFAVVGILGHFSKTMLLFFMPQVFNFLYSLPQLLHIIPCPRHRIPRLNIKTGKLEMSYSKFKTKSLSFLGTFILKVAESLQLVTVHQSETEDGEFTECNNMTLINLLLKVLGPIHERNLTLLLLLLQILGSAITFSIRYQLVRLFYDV

PD002 [4] = test: Inhibition of cell migration in human PD002 cells at 0.1 uM incubated for 0.5 hrs by crystal violet staining based Boyden chamber assay; assay type: functional
[5] = Cytotoxicity in mouse L1210 cells assessed as reduction in cell viability incubated for 72 hrs by MTT assay; settings: L1210, 72 h
DLD-1 = test: Cytotoxicity in human DLD-1 cells assessed as reduction in cell viability incubated for 72 hrs by MTT assay; assay type: functional, cell-based; settings: DLD-1, 72 h
[6] = biological target: T2, UDP-N-acetylglucosamine--dolichyl-phosphate N-acetylglucosaminephosphotransferase (Homo sapiens) (UniProt Q9H3H5); test: Inhibition of DPAGT1 in human PD002 cells assessed as reduction in snail protein expression incubated for 24 hrs by Western blot analysis; assay type: cell-based
T2 sequence (whole entry): T1 sequence (Q9H3H5 whole entry)

[7] = biological target: T2, UDP-N-acetylglucosamine--dolichyl-phosphate N-acetylglucosaminephosphotransferase (Homo sapiens); test: Inhibition of DPAGT1 in human PANC-1 cells assessed as reduction in snail protein expression incubated for 24 hrs by Western blot analysis; assay type: cell-based
CAPAN-1 [8] = test: Inhibition of DPAGT1 protein expression in human CAPAN-1 cells at 0.2 uM incubated for 24 hrs by Western blot analysis; assay type: functional, cell-based
PD002 [9] = test: Inhibition of DPAGT1 protein expression in human PD002 cells at 0.2 uM incubated for 24 hrs by Western blot analysis; assay type: functional, cell-based
PANC-1 [10] = test: Cytotoxicity in human PANC-1 cells assessed as reduction in cell viability incubated for 72 hrs by MTT assay; assay type: functional, cell-based; settings: PANC-1, 72 h
ASPC1 = test: Cytotoxicity in human ASPC1 cells assessed as reduction in cell viability incubated for 72 hrs by MTT assay; assay type: functional, cell-based; settings: ASPC1, 72 h
HCT-116 [11] = test: Inhibition of E-cadherin protein expression in human HCT-116 cells at 0 to 2 uM incubated for 24 hrs by Western blot analysis; assay type: functional, cell-based; settings: dose microM 0-2, time […]
CAPAN-1 [12] = test: Cytotoxicity in human CAPAN-1 cells assessed as reduction in cell viability incubated for 72 hrs by MTT assay; assay type: functional, cell-based; settings: CAPAN-1, 72 h
HCT-116 [13] = test: Inhibition of DPAGT1 protein expression in human HCT-116 cells at 0.2 uM incubated for 24 hrs by Western blot analysis; assay type: functional, cell-based
Vero = test: Cytotoxicity in African green monkey Vero cells assessed as reduction in cell viability incubated for 72 hrs by MTT assay; assay type: cell-based; settings: Chlorocebus sabaeus
[14] = Inhibition of cell migration in human PD002 cells assessed as wound healing rate at 0.2 uM incubated for 24 hrs by wound healing assay (reference value: 63%); assay type: functional; set-up: scale not given: the % may be the effect or the level left
[15] = biological target: T2, UDP-N-acetylglucosamine--dolichyl-phosphate N-acetylglucosaminephosphotransferase (Homo sapiens); test: Inhibition of DPAGT1 in human PD002 cells assessed as reduction in snail protein expression incubated for 24 hrs by immunofluorescence staining assay; assay type: cell-based
PD002 [16] = test: Inhibition of DPAGT1 mRNA expression in human PD002 cells at 0 to 10 uM incubated for 24 hrs by RT-qPCR analysis; assay type: functional, cell-based; settings: dose microM 0-10, time […]
[17] = Synergistic cytotoxicity in human PD002 cells assessed as FIC at 2 uM incubated for 72 hrs in presence of 0.31 uM paclitaxel by IncuCyte live cell analysis imaging system based assay; assay type: functional
[18] = Synergistic cytotoxicity in human PD002 cells assessed as FIC at 2 uM incubated for 72 hrs in presence of 0.020 uM paclitaxel by IncuCyte live cell analysis imaging system based assay; assay type: functional
[19] = Inhibition of N-terminal 6x-His-tagged Hydrogenivirga-sp. 128-5-R1-1 MraY expressed in Escherichia coli NiCo21(DE3) incubated for 2 hrs by reversed-phase HPLC analysis
KB = test: Cytotoxicity in human KB cells assessed as reduction in cell viability incubated for 72 hrs by MTT assay; assay type: functional, cell-based
[20] = biological target: T2, UDP-N-acetylglucosamine--dolichyl-phosphate N-acetylglucosaminephosphotransferase (Homo sapiens); test: Inhibition of DPAGT1 in human PANC-1 cells assessed as reduction in snail protein expression incubated for 24 hrs by immunofluorescence staining assay; assay type: cell-based
[21] = Synergistic cytotoxicity in human PD002 cells assessed as FIC at 0.2 uM incubated for 72 hrs in presence of 0.031 uM paclitaxel by IncuCyte live cell analysis imaging system based assay; assay type: functional
PD002 [22] = test: Inhibition of E-cadherin protein expression in human PD002 cells at 0 to 2 uM incubated for 24 hrs by Western blot analysis; assay type: functional, cell-based; settings: dose microM 0-2, time […]
HCT-116 [23] = test: Inhibition of DPAGT1 protein expression in human HCT-116 cells at 0.1 to 20 uM incubated for 72 hrs by immunofluorescence assay; settings: dose microM 0.1-20, time 72.0 hrs
SiHa [24] = test: Cytotoxicity in human SiHa cells assessed as reduction in cell viability incubated for 72 hrs by MTT assay; assay type: functional, cell-based
[25] = Cytotoxicity in human PD002 cells assessed as reduction in cell viability incubated for 72 hrs by MTT assay; assay type: functional, cell-based; settings: PD002, 72 h
PANC-1 [26] = test: Inhibition of E-cadherin protein expression in human PANC-1 cells at 0 to 2 uM incubated for 24 hrs by Western blot analysis; assay type: functional, cell-based; settings: dose microM 0-2, time […]
SiHa [27] = test: Inhibition of DPAGT1 protein expression in human SiHa cells at 0.2 uM incubated for 24 hrs by Western blot analysis; assay type: functional, cell-based
[28] = Inhibition of DPAGT1 protein expression in human HCT-116 cells assessed as DPAGT1 protein level at 0.1 to 20 uM incubated for 24 hrs by Western blot analysis; assay type: functional; set-up: scale not given: the % may be the effect or the level left; settings: dose microM 0.1-20
[29] = Synergistic cytotoxicity in human PD002 cells assessed as FIC at 0.2 uM incubated for 72 hrs in presence of 0.020 uM paclitaxel by IncuCyte live cell analysis imaging system based assay; assay type: functional

CO[C@H]1[C@@H](O)[C@H](n2ccc(=O)[nH]c2=O)O[C@@H]1[C@@H](O[C@H]1OC(C(=O)NCc2ccc(N3CCC(Oc4ccc(OC(F)(F)F)cc4)CC3)cc2)=C[C@H](O)[C@@H]1O)C(N)=O
IC50 [1]: 0.15 µM | IC50 [2]: 0.1 µM | IC50 [3]: 0.2 µM | inhibition (PD002 [4]): Active | IC50 [5]: > 50 µM | IC50 (DLD-1): 25 µM | inhibition [6]: Active | inhibition [7]: Active | inhibition (CAPAN-1 [8]): Active | inhibition (PD002 [9]): Active | IC50 (PANC-1 [10]): 35 µM | IC50 (ASPC1): 25 µM | inhibition (HCT-116 [11]): inactive | IC50 (CAPAN-1 [12]): 30 µM | inhibition (HCT-116 [13]): Active | IC50 (Vero): > 50 µM | Activity [14]: 20% | inhibition [15]: Active | inhibition (PD002 [16]): inactive | FIC [17]: 0.26 | FIC [18]: 0.021 | IC50 [19]: 10.3 µM | IC50 (KB): 35 µM | inhibition [20]: Active | FIC [21]: 0.26 | inhibition (PD002 [22]): inactive | inhibition (HCT-116 [23]): inactive | IC50 (SiHa [24]): 15 µM | IC50 [25]: 35 µM | inhibition (PANC-1 [26]): inactive | inhibition (SiHa [27]): Active | Activity [28]: 20% | FIC [29]: 0.021
